Drawing on patent US20240246966A1, “NEW PYRAZOLO[1,5-a] PYRIMIDINE DERIVATIVES AS SIGMA LIGANDS” (ACONDICIONAMIENTO TARRASENSE, priority 2021, published 2024), this text covers Ki for 13 compounds.

SMILES strings stand for the structures.

For one assay, the target named is T1, Human σ2/TMEM97 receptor (Homo sapiens, UniProt Q5BJF2).
T1 construct: expressed in transfected cells; host or cells: HEK-293
The assay is described as follows: Binding assay to human σ2/TMEM97 receptor ([3H]-DTG, transfected HEK-293 membranes). Particulars: human σ2/TMEM97, [3H]-DTG 10 nM, binding expressed as Ki, read-out: Binding σ-2. How it is done:
Binding Assay to Human ρ2/TMEM97 Receptor
Transfected HEK-293 membranes (15 μg) were incubated with 10 nM [^3H]-1,3-Di-o-tolylguanidine ( DTG) in assay buffer containing Tris-HCl 50 mM at pH 8.0. NSB (non-specific binding) was measured by adding 10 μM haloperidol. The binding of the test compound was measured at either one concentration (% inhibition at 1 or 10 μM) or five different concentrations to determine affinity values (Ki). Plates were incubated at 25° C. for 120 minutes. After the incubation period, the reaction mix was transferred to MultiScreen HTS, FC plates (Millipore), filtered and washed 3 times with ice-cold 10 mM Tris-HCL (pH 8.0). Filters were dried and counted at approximately 40% efficiency in a MicroBeta scintillation counter (Perkin-Elmer) using EcoScint liquid scintillation cocktail.

The target in a further assay is T2, Human σ1 Receptor (Homo sapiens, UniProt Q99720).
T2 construct: expressed in transfected cells; host or cells: HEK-293
T2 sequence (Q99720 whole entry): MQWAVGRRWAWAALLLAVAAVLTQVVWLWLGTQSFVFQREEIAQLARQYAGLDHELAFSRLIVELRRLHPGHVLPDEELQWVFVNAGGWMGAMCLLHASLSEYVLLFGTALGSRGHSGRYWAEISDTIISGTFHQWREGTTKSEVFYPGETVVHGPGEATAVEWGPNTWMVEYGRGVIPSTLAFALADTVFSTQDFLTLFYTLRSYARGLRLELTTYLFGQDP
The assay is described as follows: Human σ1 receptor radioligand assay ([3H](+)-pentazocine, transfected HEK-293 membranes). Particulars: human σ1, [3H](+)-pentazocine 5 nM, binding expressed as Ki, read-out: Binding σ-1. How it is done: Human σ1 Receptor Radioligand Assay
Transfected HEK-293 membranes (7 μg) were incubated with 5 nM of [^3H](+)-pentazocine in assay buffer containing Tris-HCl 50 mM at pH 8. NBS (non-specific binding) was measured by adding 10 μM haloperidol. The binding of the test compound was measured at either one concentration (% inhibition at 1 or 10 μM) or five different concentrations to determine affinity values (Ki). Plates were incubated at 37° C. for 120 minutes. After the incubation period, the reaction mix was then transferred to MultiScreen HTS, FC plates (Millipore), filtered and plates were washed 3 times with ice-cold 10 mM Tris-HCL (pH 7.4). Filters were dried and counted at approximately 40% efficiency in a MicroBeta scintillation counter (Perkin-Elmer) using EcoScint liquid scintillation cocktail.

T1 sequence (Q5BJF2 whole entry): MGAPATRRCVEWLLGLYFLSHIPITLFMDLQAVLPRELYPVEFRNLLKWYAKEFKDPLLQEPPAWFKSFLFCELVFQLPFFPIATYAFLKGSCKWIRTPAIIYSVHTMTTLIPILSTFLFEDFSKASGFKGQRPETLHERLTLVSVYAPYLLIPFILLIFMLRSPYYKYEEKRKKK

As for `CCN(CC)Cc1cnc2c(-c3ccnc(C(F)(F)F)c3)cnn2c1` [Example 12, N-Ethyl-N-((3-(2-(trifluoromethyl)pyridin-4-yl)pyrazolo[1,5-a]pyrimidin-6-yl)methyl)ethanamine], the figures for the Ki on Human σ2/TMEM97 receptor and on Human σ1 Receptor were greater than 1000 nM and less than 100 nM, respectively.

For `FC(F)(F)c1cc(-c2cnn3cc(CN4CCC5(CCO5)CC4)cnc23)ccn1` [Example 7, 7-((3-(2-(Trifluoromethyl)pyridin-4-yl)pyrazolo[1,5-a]pyrimidin-6-yl)methyl)-1-oxa-7-azaspiro[3.5]nonane], the Ki on Human σ2/TMEM97 receptor is greater than 1000 nM; at Human σ1 Receptor, 100 to 500 nM.

For `N#Cc1ncccc1-n1ccc2cc(CN3CCC4(CCOCC4)CC3)cnc21` [Example 53, 3-(5-((3-Oxa-9-azaspiro[5.5]undecan-9-yl)methyl)-1H-pyrrolo[2,3-b]pyridin-1-yl) picolinonitrile], the results for the Ki at Human σ2/TMEM97 receptor and on Human σ1 Receptor were 500 to 1000 nM and less than 100 nM, respectively.

As to `FC(F)(F)c1cc(-c2cnn3cc(CN4CCC5(CC4)COC5)ccc23)ccn1` [Example 57, 7-((3-(2-(Trifluoromethyl)pyridin-4-yl)pyrazolo[1,5-a]pyridin-6-yl)methyl)-2-oxa-7-azaspiro[3.5]nonane], the Ki at Human σ2/TMEM97 receptor was 100 to 500 nM; on Human σ1 Receptor, less than 100 nM.

For the compound `FC(F)(F)c1cc(-c2cnn3cc(CN4CCCC4)cnc23)ccn1` [Example 1, 6-(Pyrrolidin-1-ylmethyl)-3-(2-(trifluoromethyl)pyridin-4-yl)pyrazolo[1,5-a]pyrimidine], the figures for the Ki on Human σ2/TMEM97 receptor and at Human σ1 Receptor were greater than 1000 nM and less than 100 nM, respectively.

For the compound `FC(F)(F)c1cc(-c2cnn3cc(CN4CCCOCC4)cnc23)ccn1` [Example 31, 4-((3-(2-(Trifluoromethyl)pyridin-4-yl)pyrazolo[1,5-a]pyrimidin-6-yl)methyl)-1,4-oxazepane], the results for the Ki on Human σ2/TMEM97 receptor and on Human σ1 Receptor were 100 to 500 nM and less than 100 nM, respectively.

Regarding `FC(F)(F)c1ccc(-n2ccc3cc(CN4CCCOCC4)cnc32)cn1` [Example 52, 4-((1-(6-(Trifluoromethyl)pyridin-3-yl)-1H-pyrrolo[2,3-b]pyridin-5-yl)methyl)-1,4-oxazepane], the Ki on Human σ2/TMEM97 receptor was 500 to 1000 nM; at Human σ1 Receptor it was less than 100 nM.

For the compound `OC1CCN(Cc2cnc3c(-c4ccnc(C(F)(F)F)c4)cnn3c2)CC1` [Example 36, 1-((3-(2-(Trifluoromethyl)pyridin-4-yl)pyrazolo[1,5-a]pyrimidin-6-yl)methyl)piperidin-4-ol], the Ki at Human σ2/TMEM97 receptor was greater than 1000 nM; at Human σ1 Receptor, less than 100 nM.

For the compound `FC(F)(F)c1cc(-n2ccc3cc(CN4CCC5(CCOC5)CC4)cnc32)ccn1` [Example 43, 8-((1-(2-(Trifluoromethyl)pyridin-4-yl)-1H-pyrrolo[2,3-b]pyridin-5-yl)methyl)-2-oxa-8-azaspiro[4.5]decane], the results for the Ki at Human σ2/TMEM97 receptor and at Human σ1 Receptor were 100 to 500 nM and less than 100 nM, respectively.

Regarding `FC(F)(F)c1cc(-n2ccc3cc(CN4CC5(CCOCC5)C4)cnc32)ccn1` [Example 47, 2-((1-(2-(Trifluoromethyl)53yridine-4-yl)-1H-pyrrolo[2,3-b]53yridine-5-yl)methyl)-7-oxa-2-azaspiro[3.5]nonane], the Ki on Human σ2/TMEM97 receptor and at Human σ1 Receptor was less than 100 nM throughout.

As to `COC1CCN(Cc2cnc3c(ccn3-c3ccc(C(F)(F)F)nc3)c2)CC1` [Example 51, 5-((4-Methoxypiperidin-1-yl)methyl)-1-(6-(trifluoromethyl)pyridin-3-yl)-1H-pyrrolo[2,3-b]pyridine], the Ki was 500 to 1000 nM on Human σ2/TMEM97 receptor and less than 100 nM at Human σ1 Receptor.

On to `COCC1CCN(Cc2cnc3c(ccn3-c3ccc(C(F)(F)F)nc3)c2)CC1` [Example 41, 5-((4-(Methoxymethyl)piperidin-1-yl)methyl)-1-(6-(trifluoromethyl)pyridin-3-yl)-1H-pyrrolo[2,3-b]pyridine], for which the Ki was 100 to 500 nM on Human σ2/TMEM97 receptor and less than 100 nM at Human σ1 Receptor.

On to `FC(F)(F)c1ccc(-c2cnn3cc(CN4CC5(CCOCC5)C4)cnc23)cn1` [Example 22, 2-((3-(6-(Trifluoromethyl)pyridin-3-yl)pyrazolo[1,5-a]pyrimidin-6-yl)methyl)-7-oxa-2-azaspiro[3.5]nonane], for which the figures for the Ki at Human σ2/TMEM97 receptor and on Human σ1 Receptor were greater than 1000 nM and less than 100 nM, respectively.
